{"source": "paper PMC7732531", "about": "(Frontiers in Pharmacology, 2020)", "key": {"[1]": {"settings": "rat, microsomes, 0 h, 1 μM, pH 7.4"}, "[2]": {"experiment": "Aqueous solubility / BCS class", "format": "physicochemical"}, "[3]": {"experiment": "Brain distribution under steady state (Kp,uu)", "format": "in vivo, rat"}, "[4]": {"experiment": "Mass balance study in rats via oral administration", "settings": "rat, feces"}, "[5]": {"experiment": "Pharmacokinetics in portal and jugular vein double cannulated rats", "settings": "double cannulation rat model, if F a is 100%", "description": "The surgical procedure for portal vein catheter insertion was performed according to reference ([Matsuda et al., 2012]). Male SD rats (250–280 g) were purchased from Beijing Vital River Laboratory Animal Technology Co., Ltd. (Beijing, China). Rats were anesthetized with 2% pentobarbital sodium (0.2–0.3 mg/100 g) intraperitoneally dosed. Cannulation into the jugular vein was performed by the method of Murakami reported ([Murakami et al., 2003]) with minor modification. Briefly, an incision of ∼0.5 cm near right clavicle was made and the jugular vein was exposed. Next, this vein was cannulated with ∼12.5 cm of silicone gel tubing (0.6 mm I.D. × 0.9 mm O.D., Skillsmodel Inc., Beijing, China). The other side of the tubing was passed through the back skin. 2.5 cm midline incision was made in the abdominal cavity close to ensiform process and the portal vein was detached. To prevent bleeding, the portal vein was ligated temporarily as the catheter was inserted. The silicone tubing (22 cm, 0.6 mm I.D. × 0.9 mm O.D., Skillsmodel Inc., Beijing, China) was inserted immediately and fixed by a purse-string suture on the portal vein. The time to reperfusion was about 1 min after intercepted blood flow. In addition, a catheter with trumpet-shaped opening was used to prevent the catheter from slipping out of the vessel and minimize the effect on blood flow. Another end of the catheter was passed subcutaneously to the skin close to the scapula.\nBlood samples were collected at 0, 0.083, 0.25, 0.5, 1, 2, 4, 6, 8 and 12 h. Blood (approximately 100 µl) was collected from the jugular and portal veins into tubes containing heparin on ice and centrifuged within 1 h of collection. Plasma was harvested and stored at −20°C for bioanalysis.\nFaFg was calculated using mass balance method and rat portal blood flow (Qpv) of 32 ml/min/kg, where Rb/p is used to convert plasma concentrations to blood concentrations."}, "[6]": {"settings": "rat, microsomes, 0 h, 1 μM, pH 7.4", "remark": "listed apart in the source"}, "forced swim rats": {"test_system": "forced swim rats", "parameters": "method as in Zhang et al., 2017", "settings": "ref Zhang et al., 2017, cited from earlier work"}, "[7]": {"experiment": "Prediction of therapeutic human plasma concentration from Kp,uu", "settings": "C b,u,human set to 4.9 pg/ml, rat K p,uu, human unbound fraction", "text": "K p,uu in the current investigation is critical to link the PD of in vitro and in vivo results (see the result part). What is more important is that K p,uu is often preserved across species ([Di et al., 2013]). Human K p,uu can be estimated using that of rat ( Kp,uu,human≈Kp,uu,rat ). Thus, unbound drug concentration in human brain can be calculated by using the rat K p,uu, rat times the human unbound plasma concentration [ Cb,u,human≈Kp,uu,rat ×Cp,u,human ]. At the current stage, if C b,u,human (4.9 pg/ml) was set as the in vitro TPSO-binding activity concentration for the onset efficacy, therapeutic human plasma concentration would be around 27.2 ng/ml according to the calculation."}, "[8]": {"settings": "human, microsomes, 0 h, 1 μM, pH 7.4"}, "[9]": {"experiment": "Stability of YL-IPA08 in rat plasma (LC-MS/MS validation)", "format": "in vitro ADME", "protocol": "The quantification of YL-IPA08 in rat plasma was fully validated, and in vitro samples were particularly validated by selectivity, precision, and stability. The calibration curves of YL-IPA08 in rat plasma and in vitro incubates ranged in the concentrations of 0.5–500 ng/ml and 1–1,000 nM, respectively. The intra-day precision and inter-day precision […] were less than 15% at QC concentrations (full methodology validation results were presented in Supplementary Tables S1–S3)."}, "in vitro [10]": {"experiment": "in vitro", "settings": "human, microsomes, pH 7.4"}, "in vitro [11]": {"experiment": "in vitro", "format": "in vitro ADME", "settings": "human, plasma", "description": "The fraction of unbound YL-IPA08 in plasma and liver microsomes of rat and human, and brain homogenates of rat were determined utilizing Rapid Equilibrium Dialysis method ([Waters et al., 2008]). Rat brain homogenate was harvested in 4-fold volume (w/v) of PBS (pH 7.4). YL-IPA08 were spiked into fresh plasma, rat brain homogenate, liver microsomes (0.2 mg/ml protein) at concentration of 1 µM, and then dialyzed against biomatrices on a shaker at 37°C for 4 h. To avoid the high non-specific binding of YL-IPA08, 0.01% Tween 80 was added in the incubation mixture. At the end of the incubation, protein was precipitated with acetonitrile (containing IS) and analyzed by LC-MS/MS. Phenacetin, quinidine, and warfarin were selected as positive control for the protein binding test.\nThe unbound fraction of YL-IPA08 in plasma or liver microsomes (ƒu,x) was calculated as shown in Eq. 2, and unbound fraction in the tissue homogenate (ƒu,b) was calculated according to Eq. 3. fu,x = Concbuffer chamber/Concplasma/liver microsomes chamber (2) fu,b = Concbuffer chamber/Concbrain homogenate chamber (3) The measured unbound fractions would be higher when a tissue is homogenized and diluted in buffer, the unbound fractions in an undiluted tissues (ƒu,brain) were calculated using Eq. 4 ([Kalvass and Maurer, 2002]). […]"}, "[12]": {"settings": "Freeze-thaw three cycles, HQC (400ng/ml)"}, "[13]": {"settings": "Freeze-thaw three cycles, LQC (1ng/ml)"}, "[14]": {"settings": "Freeze-thaw three cycles, MQC (20ng/ml)"}, "[15]": {"settings": "In auto-sample for 24 h, HQC (400ng/ml)"}, "[16]": {"settings": "In auto-sample for 24 h, LQC (1ng/ml)"}, "[17]": {"settings": "In auto-sample for 24 h, MQC (20ng/ml)"}, "[18]": {"settings": "Room temperature for 24 h, HQC (400ng/ml)"}, "[19]": {"settings": "Room temperature for 24 h, LQC (1ng/ml)"}, "[20]": {"settings": "Room temperature for 24 h, MQC (20ng/ml)"}}, "note": "Read-outs that look alike come from different tables or passages of the source.", "data": [{"smiles": "CCN(Cc1ccccn1)C(=O)Cc1c(-c2ccc(Cl)c(Cl)c2)nc2cc(C)ccn12", "note": "[YL-IPA08]", "values": [{"measurement": "percent of remaining", "setting": "[1]", "value": 100.00, "unit": "%"}, {"measurement": "aqueous solubility (in words)", "setting": "[2]", "value": "high aqueous solubility"}, {"measurement": "BCS class", "setting": "[2]; from high aqueous solubility and high permeability", "value": "BCS class I"}, {"measurement": "unbound concentration in rat brain", "setting": "[3]; estimated based on K p,uu", "value": 6.5, "unit": "pg/mL"}, {"measurement": "unbound concentration in brain", "setting": "[3]; rats, after 1 mg/kg oral dosing, estimated from plasma concentrations and K p,uu", "value": 6.5, "unit": "pg/g"}, {"measurement": "dose excreted", "setting": "[4]", "value": 0.004, "unit": "%"}, {"measurement": "extraction of gut metabolism", "setting": "[5]", "value": 78, "unit": "%"}, {"measurement": "percent of remaining", "setting": "[6]", "value": 100.00, "unit": "%"}, {"measurement": "antidepressant-like effect", "setting": "forced swim rats; forced swim rats, 1, 3, and 10 mg/kg", "value": "marked acute antidepressant-like effects"}, {"measurement": "antidepressant-like and anxiolytic-like effects", "setting": "forced swim rats; series of rat behavior models, 1–10 mg/kg oral dosing", "value": "significant antidepressant-like and anxiolytic-like effects"}, {"measurement": "predicted therapeutic human plasma concentration", "setting": "[7]", "value": "~27.2", "unit": "ng/mL"}, {"measurement": "percent of remaining", "setting": "[8]", "value": 100.00, "unit": "%"}, {"measurement": "Accuracy", "setting": "[9]; 4℃ for 24 h, HQC (400ng/ml)", "value": "99.8±8.0", "unit": "%"}, {"measurement": "Measured value", "setting": "[9]; 4℃ for 24 h, HQC (400ng/ml)", "value": "399.00 ± 31.76", "unit": "ng/mL"}, {"measurement": "Accuracy", "setting": "[9]; 4℃ for 24 h, LQC (1ng/ml)", "value": "113.0±9.0", "unit": "%"}, {"measurement": "Measured value", "setting": "[9]; 4℃ for 24 h, LQC (1ng/ml)", "value": "1.13 ± 0.09", "unit": "ng/mL"}, {"measurement": "Accuracy", "setting": "[9]; 4℃ for 24 h, MQC (20ng/ml)", "value": "108.7±5.3", "unit": "%"}, {"measurement": "Measured value", "setting": "[9]; 4℃ for 24 h, MQC (20ng/ml)", "value": "21.73 ± 1.07", "unit": "ng/mL"}, {"measurement": "Accuracy", "setting": "[9]; -40℃ for 7 d, HQC (400ng/ml)", "value": "105.1±8.5", "unit": "%"}, {"measurement": "Measured value", "setting": "[9]; -40℃ for 7 d, HQC (400ng/ml)", "value": "420.33 ± 33.84", "unit": "ng/mL"}, {"measurement": "Accuracy", "setting": "[9]; -40℃ for 7 d, LQC (1ng/ml)", "value": "105.0±6.0", "unit": "%"}, {"measurement": "Measured value", "setting": "[9]; -40℃ for 7 d, LQC (1ng/ml)", "value": "1.05 ± 0.06", "unit": "ng/mL"}, {"measurement": "Accuracy", "setting": "[9]; -40℃ for 7 d, MQC (20ng/ml)", "value": "105.0±4.1", "unit": "%"}, {"measurement": "Measured value", "setting": "[9]; -40℃ for 7 d, MQC (20ng/ml)", "value": "21.00 ± 0.82", "unit": "ng/mL"}, {"measurement": "Accuracy", "setting": "[9]; [12]", "value": "96.8±2.6", "unit": "%"}, {"measurement": "Measured value", "setting": "[9]; [12]", "value": "387.33 ± 10.21", "unit": "ng/mL"}, {"measurement": "Accuracy", "setting": "[9]; [13]", "value": "114.0±5.0", "unit": "%"}, {"measurement": "Measured value", "setting": "[9]; [13]", "value": "1.14 ± 0.05", "unit": "ng/mL"}, {"measurement": "Accuracy", "setting": "[9]; [14]", "value": "103.0±1.8", "unit": "%"}, {"measurement": "Measured value", "setting": "[9]; [14]", "value": "20.60 ± 0.36", "unit": "ng/mL"}, {"measurement": "Accuracy", "setting": "[9]; [15]", "value": "98.6±3.0", "unit": "%"}, {"measurement": "Measured value", "setting": "[9]; [15]", "value": "394.33 ± 12.06", "unit": "ng/mL"}, {"measurement": "Accuracy", "setting": "[9]; [16]", "value": "95.0±2.0", "unit": "%"}, {"measurement": "Measured value", "setting": "[9]; [16]", "value": "0.95 ± 0.02", "unit": "ng/mL"}, {"measurement": "Accuracy", "setting": "[9]; [17]", "value": "100.4±1.2", "unit": "%"}, {"measurement": "Measured value", "setting": "[9]; [17]", "value": "20.07 ± 0.25", "unit": "ng/mL"}, {"measurement": "Accuracy", "setting": "[9]; [18]", "value": "102.5±1.4", "unit": "%"}, {"measurement": "Measured value", "setting": "[9]; [18]", "value": "410.00 ± 5.57", "unit": "ng/mL"}, {"measurement": "Accuracy", "setting": "[9]; [19]", "value": "110.0±8.0", "unit": "%"}, {"measurement": "Measured value", "setting": "[9]; [19]", "value": "1.10 ± 0.08", "unit": "ng/mL"}, {"measurement": "Accuracy", "setting": "[9]; [20]", "value": "112.5±4.1", "unit": "%"}, {"measurement": "Measured value", "setting": "[9]; [20]", "value": "22.50 ± 0.82", "unit": "ng/mL"}, {"measurement": "microsomal CLint at 1 μM", "setting": "in vitro [10]", "value": "200 ± 30", "unit": "µL/min/mg"}, {"measurement": "fraction unbound at 4 h, 1 µM", "setting": "in vitro [11]", "value": 0.001}]}]}
